From patent US20260193264A1, “BENZOYPARAZINE PYRAZINES AND THEIR USES” (FOGHORN THERAPEUTICS INC., priority 2022, published 2026)

Columns and labels:
[1] = target: T1, HiBiT-BRM fusion protein in stable HeLa cell line (Homo sapiens, UniProt P51531); assay: HiBiT-BRM cell-based degradation assay (Nano-Glo HiBiT Lytic Detection, 24 h); set-up: DC50: scale not given here; details: HeLa HiBiT-BRM cells; for DC50: read-out: BRM HiBit Degradation IC50; for BRM HiBit Degradation Maximum (%): top dose 30 μM
T1 construct: expressed in transfected cells
T1 sequence (P51531 whole entry, the tested form may be a part): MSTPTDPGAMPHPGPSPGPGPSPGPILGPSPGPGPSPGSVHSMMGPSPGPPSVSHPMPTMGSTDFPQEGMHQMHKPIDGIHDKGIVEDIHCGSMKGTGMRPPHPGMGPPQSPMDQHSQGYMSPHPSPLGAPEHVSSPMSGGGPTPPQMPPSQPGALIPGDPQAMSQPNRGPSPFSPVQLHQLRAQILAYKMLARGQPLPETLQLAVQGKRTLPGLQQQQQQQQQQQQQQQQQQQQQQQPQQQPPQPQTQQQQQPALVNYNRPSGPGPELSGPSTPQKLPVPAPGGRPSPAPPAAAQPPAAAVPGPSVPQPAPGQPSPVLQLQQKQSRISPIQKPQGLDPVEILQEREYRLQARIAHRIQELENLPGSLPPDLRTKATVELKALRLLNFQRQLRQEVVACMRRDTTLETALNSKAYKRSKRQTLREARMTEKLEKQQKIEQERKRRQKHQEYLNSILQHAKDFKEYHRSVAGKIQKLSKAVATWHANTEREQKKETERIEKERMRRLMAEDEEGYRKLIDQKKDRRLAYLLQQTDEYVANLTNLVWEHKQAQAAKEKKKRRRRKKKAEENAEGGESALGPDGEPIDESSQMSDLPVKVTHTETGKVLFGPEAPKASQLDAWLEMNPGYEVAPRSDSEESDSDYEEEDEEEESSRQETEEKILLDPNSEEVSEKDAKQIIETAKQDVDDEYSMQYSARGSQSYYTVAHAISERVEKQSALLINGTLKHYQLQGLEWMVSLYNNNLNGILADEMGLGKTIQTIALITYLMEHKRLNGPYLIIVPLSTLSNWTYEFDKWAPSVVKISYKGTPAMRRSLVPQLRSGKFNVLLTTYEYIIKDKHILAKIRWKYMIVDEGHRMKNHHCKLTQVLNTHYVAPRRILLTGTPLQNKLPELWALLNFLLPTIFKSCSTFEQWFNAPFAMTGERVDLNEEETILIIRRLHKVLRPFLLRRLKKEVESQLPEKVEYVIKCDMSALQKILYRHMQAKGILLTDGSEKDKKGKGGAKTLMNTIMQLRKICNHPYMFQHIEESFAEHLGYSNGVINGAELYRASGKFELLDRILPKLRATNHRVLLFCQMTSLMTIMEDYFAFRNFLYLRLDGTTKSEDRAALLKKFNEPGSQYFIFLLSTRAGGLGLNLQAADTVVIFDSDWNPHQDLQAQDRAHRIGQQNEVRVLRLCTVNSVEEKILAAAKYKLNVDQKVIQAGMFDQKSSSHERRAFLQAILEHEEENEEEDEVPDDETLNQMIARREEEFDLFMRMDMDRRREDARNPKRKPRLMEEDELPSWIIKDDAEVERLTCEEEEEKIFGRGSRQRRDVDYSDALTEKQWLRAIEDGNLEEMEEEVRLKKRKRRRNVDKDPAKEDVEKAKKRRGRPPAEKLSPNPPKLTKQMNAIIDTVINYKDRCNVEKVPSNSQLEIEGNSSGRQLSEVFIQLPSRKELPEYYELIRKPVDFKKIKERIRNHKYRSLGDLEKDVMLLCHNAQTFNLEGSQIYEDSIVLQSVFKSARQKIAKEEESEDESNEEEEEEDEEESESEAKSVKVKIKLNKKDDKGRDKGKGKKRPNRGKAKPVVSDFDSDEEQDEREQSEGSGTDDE
Outline: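 Stable HiBiT-BRM HeLa cells were treated with 10-point 3-fold serial dilutions (30 μM final top dose, duplicate) for 24 h, then lysed with LgBiT-containing detection reagent and luminescence read. Degradation % was normalised to DMSO (high control) and 2 μM reference BRM/BRG1 degrader (low control).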

[2] = target: T2, HiBit-BRG1 fusion protein in stable HeLa cell line expressing HiBit-BRG1 and LgBit (Homo sapiens, UniProt P51532); assay: HiBiT-BRG1 cell-based degradation assay (Nano-Glo HiBiT, 24 h); details: HeLa HiBit-BRG1/LgBit cells; for DC50: read-out: BRMG1 HiBit Degradation IC50; for Dmax: top dose 30 μM, read-out: BRG1 HiBit Degradation Maximum (%)
T2 construct: expressed in transfected cells
T2 sequence (P51532 whole entry, the tested form may be a part): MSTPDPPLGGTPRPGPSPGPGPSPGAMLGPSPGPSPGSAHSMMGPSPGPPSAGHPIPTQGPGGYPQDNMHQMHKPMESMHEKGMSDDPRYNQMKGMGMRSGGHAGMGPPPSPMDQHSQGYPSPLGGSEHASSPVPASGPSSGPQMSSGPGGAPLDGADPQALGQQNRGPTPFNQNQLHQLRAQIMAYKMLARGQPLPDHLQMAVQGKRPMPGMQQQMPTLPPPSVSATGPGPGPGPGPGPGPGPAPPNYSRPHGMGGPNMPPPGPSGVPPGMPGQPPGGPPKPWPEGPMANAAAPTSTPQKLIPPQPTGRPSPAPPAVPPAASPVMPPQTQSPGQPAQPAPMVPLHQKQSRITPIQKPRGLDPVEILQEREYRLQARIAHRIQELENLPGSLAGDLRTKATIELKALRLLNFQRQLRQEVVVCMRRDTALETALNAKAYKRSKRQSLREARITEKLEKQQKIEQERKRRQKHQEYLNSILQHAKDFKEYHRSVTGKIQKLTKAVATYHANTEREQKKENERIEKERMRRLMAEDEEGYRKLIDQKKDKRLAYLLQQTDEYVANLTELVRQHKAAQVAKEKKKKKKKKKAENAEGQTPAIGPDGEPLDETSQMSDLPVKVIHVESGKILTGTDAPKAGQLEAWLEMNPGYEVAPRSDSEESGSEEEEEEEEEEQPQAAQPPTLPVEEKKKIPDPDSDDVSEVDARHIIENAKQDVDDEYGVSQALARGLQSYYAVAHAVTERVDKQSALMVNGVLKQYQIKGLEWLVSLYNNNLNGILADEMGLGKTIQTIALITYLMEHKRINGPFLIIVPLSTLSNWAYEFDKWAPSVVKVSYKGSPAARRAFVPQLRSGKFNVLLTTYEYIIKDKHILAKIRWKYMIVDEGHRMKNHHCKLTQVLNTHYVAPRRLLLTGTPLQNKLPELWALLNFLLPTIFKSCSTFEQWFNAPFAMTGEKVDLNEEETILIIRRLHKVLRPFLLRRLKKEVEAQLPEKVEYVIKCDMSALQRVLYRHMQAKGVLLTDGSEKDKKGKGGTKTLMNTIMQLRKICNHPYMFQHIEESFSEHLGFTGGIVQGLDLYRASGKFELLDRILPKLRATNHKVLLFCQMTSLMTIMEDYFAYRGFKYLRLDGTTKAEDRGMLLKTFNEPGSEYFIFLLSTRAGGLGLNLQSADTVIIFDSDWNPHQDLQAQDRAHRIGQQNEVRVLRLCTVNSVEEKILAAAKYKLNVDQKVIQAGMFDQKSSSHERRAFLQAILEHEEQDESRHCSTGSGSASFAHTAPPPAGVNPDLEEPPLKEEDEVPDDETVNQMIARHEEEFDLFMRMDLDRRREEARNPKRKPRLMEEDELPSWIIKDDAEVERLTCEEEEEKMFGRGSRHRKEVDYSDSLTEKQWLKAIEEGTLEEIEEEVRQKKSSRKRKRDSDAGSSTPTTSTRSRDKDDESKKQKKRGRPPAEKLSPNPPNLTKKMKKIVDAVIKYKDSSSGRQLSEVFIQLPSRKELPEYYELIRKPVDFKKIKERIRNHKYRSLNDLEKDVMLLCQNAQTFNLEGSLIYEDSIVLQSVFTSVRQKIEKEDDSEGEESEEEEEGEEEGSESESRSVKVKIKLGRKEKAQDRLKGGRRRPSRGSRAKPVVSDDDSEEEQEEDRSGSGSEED
Outline: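 Stable HeLa line co-expressing HiBiT-BRG1 and LgBiT, compound-treated 24 h; luminescence read after Nano-Glo HiBiT lytic reagent. % degradation normalised between DMSO (high control) and 2 μM reference BRM/BRG1 degrader (low control).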

DC50 [1]	DC50 [2]	Dmax [2]	Structure (SMILES)	BRM HiBit Degradation Maximum (%) [1]
< 10 nM	> 10 nM	> 50%	Cc1ncsc1-c1ccc([C@H](C)NC(=O)[C@@H]2C[C@@H](O)CN2C(=O)[C@@H](c2cc(N3CC4(CC(Oc5ccc6nnc(-c7ccccc7O)cc6c5)C4)C3)no2)C(C)C)cc1 [Compound 184, (2S,4R)-4-hydroxy-1-((R)-2-(3-(6-((3-(2-hydroxyphenyl)cinnolin-6-yl)oxy)-2-azaspiro[3.3]heptan-2-yl)isoxazol-5-yl)-3-methylbutanoyl)-N-((S)-1-(4-(4-methylthiazol-5-yl)phenyl)ethyl)pyrrolidine-2-carboxamide]	A (“A” indicates maximum degradation ≥75%)
< 10 nM	< 10 nM	> 75%	Cc1ncsc1-c1ccc([C@H](C)NC(=O)[C@@H]2C[C@@H](O)CN2C(=O)[C@H](C(C)C)n2cc(C3CC4(C3)CN(c3ccc5cc(-c6ccccc6O)nnc5c3)C4)nn2)cc1 [Compound 186, (2S,4R)-4-hydroxy-1-[(2S)-2-(4-{2-[3-(2-hydroxyphenyl)cinnolin-7-yl]-2-azaspiro[3.3]heptan-6-yl}-1,2,3-triazol-1-yl)-3-methylbutanoyl]-N-[(1S)-1-[4-(4-methyl-1,3-thiazol-5-yl)phenyl]ethyl]pyrrolidine-2-carboxamide]	A (“A” indicates maximum degradation ≥75%)
< 10 nM	> 10 nM	> 75%	Cc1ncsc1-c1ccc([C@H](C)NC(=O)[C@@H]2C[C@@H](O)CN2C(=O)[C@@H](c2cc(N3C[C@]4(C)CN(c5ccc6cc(-c7ccccc7O)nnc6c5)C[C@]4(C)C3)no2)C(C)C)cc1 [Compound 187, (2S,4R)-4-hydroxy-1-((R)-2-(3-((3aR,6aS)-5-(3-(2-hydroxyphenyl)cinnolin-7-yl)-3a,6a-dimethylhexahydropyrrolo[3,4-c]pyrrol-2(1H)-yl)isoxazol-5-yl)-3-methylbutanoyl)-N-((S)-1-(4-(4-methylthiazol-5-yl)phenyl)ethyl)pyrrolidine-2-carboxamide]	A (“A” indicates maximum degradation ≥75%)
> 10 nM	> 10 nM	> 75%	Cc1ncsc1-c1ccc([C@H](C)NC(=O)[C@@H]2C[C@@H](O)CN2C(=O)[C@@H](c2cc(N3C[C@]4(C)CN(c5ccc6nnc(-c7ccccc7O)cc6c5)C[C@]4(C)C3)no2)C(C)C)cc1 [Compound 188, (2S,4R)-4-hydroxy-1-((R)-2-(3-((3aR,6aS)-5-(3-(2-hydroxyphenyl)cinnolin-6-yl)-3a,6a-dimethylhexahydropyrrolo[3,4-c]pyrrol-2(1H)-yl)isoxazol-5-yl)-3-methylbutanoyl)-N-((S)-1-(4-(4-methylthiazol-5-yl)phenyl)ethyl)pyrrolidine-2-carboxamide]	A (“A” indicates maximum degradation ≥75%)
< 10 nM	–	< 50%	Cc1ncsc1-c1ccc([C@H](C)NC(=O)[C@@H]2C[C@@H](O)CN2C(=O)[C@H](C(C)C)n2cc(N3CC4(CN(c5ccc6nnc(-c7ccccc7O)cc6c5)CCO4)C3)nn2)cc1 [Compound 189, (2S,4R)-4-hydroxy-1-((S)-2-(4-(8-(3-(2-hydroxyphenyl)cinnolin-6-yl)-5-oxa-2,8-diazaspiro[3.5]nonan-2-yl)-1H-1,2,3-triazol-1-yl)-3-methylbutanoyl)-N-((S)-1-(4-(4-methylthiazol-5-yl)phenyl)ethyl)pyrrolidine-2-carboxamide]	A (“A” indicates maximum degradation ≥75%)
< 10 nM	–	< 50%	Cc1ncsc1-c1ccc([C@H](C)NC(=O)[C@@H]2C[C@@H](O)CN2C(=O)[C@H](C(C)C)n2cc(-c3ccc4nnc(-c5ccccc5O)cc4c3Cl)nn2)cc1 [Compound 190, (2S,4R)-1-((S)-2-(4-(5-chloro-3-(2-hydroxyphenyl)cinnolin-6-yl)-1H-1,2,3-triazol-1-yl)-3-methylbutanoyl)-4-hydroxy-N-((S)-1-(4-(4-methylthiazol-5-yl)phenyl)ethyl)pyrrolidine-2-carboxamide]	A (“A” indicates maximum degradation ≥75%)
> 10 nM	–	< 50%	Cc1ncsc1-c1ccc([C@H](C)NC(=O)[C@@H]2C[C@@H](O)CN2C(=O)C(c2cc(N3CC4(CN(c5cc(C(F)F)c6cc(-c7ccccc7O)nnc6c5)C4)C3)no2)C(C)C)cc1 (stereo partly drawn) [Compound 191, (2S,4R)-1-(2-(3-(6-(5-(difluoromethyl)-3-(2-hydroxyphenyl)cinnolin-7-yl)-2,6-diazaspiro[3.3]heptan-2-yl)isoxazol-5-yl)-3-methylbutanoyl)-4-hydroxy-N-((S)-1-(4-(4-methylthiazol-5-yl)phenyl)ethyl)pyrrolidine-2-carboxamide]	A (“A” indicates maximum degradation ≥75%)
< 10 nM	< 10 nM	> 75%	Cc1ncsc1-c1ccc([C@H](C)NC(=O)[C@@H]2C[C@@H](O)CN2C(=O)[C@H](C(C)C)n2cc(N3CCC4(CCN(c5ccc6cc(-c7ccccc7O)nnc6c5)CC4)CC3)nn2)cc1 [Compound 192, (2S,4R)-4-hydroxy-1-((S)-2-(4-(9-(3-(2-hydroxyphenyl)cinnolin-7-yl)-3,9-diazaspiro [5.5]undecan-3-yl)-1H-1,2,3-triazol-1-yl)-3-methylbutanoyl)-N-((S)-1-(4-(4-methylthiazol-5-yl)phenyl)ethyl)pyrrolidine-2-carboxamide]	A (“A” indicates maximum degradation ≥75%)
< 10 nM	> 10 nM	> 75%	Cc1ncsc1-c1ccc([C@H](C)NC(=O)[C@@H]2C[C@@H](O)CN2C(=O)[C@H](C2CCC2)n2cc(N3CC4(CC(c5ccc6cc(-c7ccccc7O)nnc6c5)C4)C3)nn2)cc1 [Compound 193, (2S,4R)-1-((S)-2-cyclobutyl-2-(4-(6-(3-(2-hydroxyphenyl)cinnolin-7-yl)-2-azaspiro[3.3]heptan-2-yl)-1H-1,2,3-triazol-1-yl)acetyl)-4-hydroxy-N-((S)-1-(4-(4-methylthiazol-5-yl)phenyl)ethyl)pyrrolidine-2-carboxamide]	A (“A” indicates maximum degradation ≥75%)
< 10 nM	–	> 50%	Cc1ncsc1-c1ccc([C@H](C)NC(=O)[C@@H]2C[C@@H](O)CN2C(=O)[C@@H](c2cc(N3CC4(CN(c5ccc6cc(-c7ccccc7O)nnc6c5)C4)C3)sn2)C(C)C)cc1 [Compound 195, (2S,4R)-4-hydroxy-1-[(2R)-2-(5-{6-[3-(2-hydroxyphenyl)cinnolin-7-yl]-2,6-diazaspiro[3.3]heptan-2-yl}-1,2-thiazol-3-yl)-3-methylbutanoyl]-N-[(1S)-1-[4-(4-methyl-1,3-thiazol-5-yl)phenyl]ethyl]pyrrolidine-2-carboxamide]	A (“A” indicates maximum degradation ≥75%)
> 10 nM	–	< 50%	COC[C@@H]1CN(c2cc([C@H](C(=O)N3C[C@H](O)C[C@H]3C(=O)N[C@@H](C)c3ccc(-c4scnc4C)cc3)C(C)C)on2)CCN1c1ccc2cc(-c3ccccc3O)nnc2c1 [Compound 196, (2S,4R)-4-hydroxy-1-((R)-2-(3-((S)-4-(3-(2-hydroxyphenyl)cinnolin-7-yl)-3-(methoxymethyl)piperazin-1-yl)isoxazol-5-yl)-3-methylbutanoyl)-N-((S)-1-(4-(4-methylthiazol-5-yl)phenyl)ethyl)pyrrolidine-2-carboxamide]	B (“B” indicates maximum degradation ≥50%)
< 10 nM	< 10 nM	> 75%	Cc1ncsc1-c1ccc([C@H](C)NC(=O)[C@@H]2C[C@@H](O)CN2C(=O)C(C(C)C)n2cc(N3CCC4(CC3)CN(c3ccc5cc(-c6ccccc6O)nnc5c3)C4)nn2)cc1 (stereo partly drawn) [Compound 197, (2S,4R)-4-hydroxy-1-(2-(4-(2-(3-(2-hydroxyphenyl)cinnolin-7-yl)-2,7-diazaspiro[3.5]nonan-7-yl)-1H-1,2,3-triazol-1-yl)-3-methylbutanoyl)-N-((S)-1-(4-(4-methylthiazol-5-yl)phenyl)ethyl)pyrrolidine-2-carboxamide]	A (“A” indicates maximum degradation ≥75%)
< 10 nM	< 10 nM	> 75%	Cc1ncsc1-c1ccc([C@H](C)NC(=O)[C@@H]2C[C@@H](O)CN2C(=O)[C@H](C(C)C)n2cc(N3CCN4CCN(c5ccc6cc(-c7ccccc7O)nnc6c5)C[C@H]4C3)nn2)cc1 [Compound 198]	A (“A” indicates maximum degradation ≥75%)
< 10 nM	> 10 nM	> 75%	Cc1ncsc1-c1ccc([C@H](C)NC(=O)[C@@H]2C[C@@H](O)CN2C(=O)[C@@H](c2cc(C3CC4(C3)CN(c3ccc5cc(-c6ccccc6O)nnc5c3)C4)no2)C(C)C)cc1 [Compound 199, (2S,4R)-4-hydroxy-1-((R)-2-(3-(2-(3-(2-hydroxyphenyl)cinnolin-7-yl)-2-azaspiro[3.3]heptan-6-yl)isoxazol-5-yl)-3-methylbutanoyl)-N-((S)-1-(4-(4-methylthiazol-5-yl)phenyl)ethyl)pyrrolidine-2-carboxamide]	A (“A” indicates maximum degradation ≥75%)
